Data published in patent publication US9464064B2, “HCV helicase inhibitors and methods of use thereof” (University of Kansas, priority 2011, dated 2016).

Target: T1, HCV NS3 helicase NS3h_1b(con1) (Hepatitis C virus genotype 1b, UniProt Q9WMX2)
T1 construct: truncated C-terminally His-tagged NS3 proteins lacking the N-terminal protease, called NS3h; His-tag (C); made in house
Assay: MBHA screen of NCI mechanistic set library at 20 μM (percent inhibition, compound interference)
Type: biochemical
Details: compounds at 20 μM; for Inh. (%) (Inhibition): calculated from Equation 1
Procedure, shortened: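 Molecular beacon-based DNA unwinding assay; compounds screened at 20 μM in triplicate, with DMSO-only negative and 500 nM dT20 positive controls. Fluorescence (ex 643/em 670 nm) was read before and 30 min after adding ATP to 1 mM. Percent inhibition came from the change relative to DMSO controls; interference from pre-ATP fluorescence versus DMSO controls.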

[1] = assay interference calculated with Equation 2 (fluorescence vs DMSO-only controls before ATP)
[2] = MBHA with DNA substrate, assay interference calculated with Equation 2

T1 sequence (Q9WMX2 1192-1657): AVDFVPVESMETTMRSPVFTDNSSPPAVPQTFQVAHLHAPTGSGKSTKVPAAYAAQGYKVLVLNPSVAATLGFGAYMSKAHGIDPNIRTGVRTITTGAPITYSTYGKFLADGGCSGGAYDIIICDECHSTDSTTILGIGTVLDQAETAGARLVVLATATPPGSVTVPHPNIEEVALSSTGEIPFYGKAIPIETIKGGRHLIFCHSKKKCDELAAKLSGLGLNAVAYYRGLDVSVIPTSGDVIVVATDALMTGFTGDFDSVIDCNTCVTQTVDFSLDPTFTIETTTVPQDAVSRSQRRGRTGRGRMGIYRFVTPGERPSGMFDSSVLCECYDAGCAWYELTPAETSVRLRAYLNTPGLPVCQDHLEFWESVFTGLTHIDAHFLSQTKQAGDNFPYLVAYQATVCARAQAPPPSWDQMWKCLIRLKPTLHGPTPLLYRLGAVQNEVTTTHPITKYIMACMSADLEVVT

Compound | Inh. (%) (Inhibition) (MBHA with a DNA substrate) | Int.* (Ratio) (Interference) [1] | Int.* (Ratio) (Interference) [2] | Inh. (%) (Inhibition) (MBHA with DNA substrate)
CO[C@@H]1C[C@](C)(O)Cc2cc3c(c(O)c21)C(=O)c1c(O)cc2c(c1C3=O)O[C@@H]1O[C@@]2(C)[C@H](O)[C@@H](N(C)C)[C@@H]1O [Compound 269148] | −4.1% | 0.71 Ratio | – | –
Cc1cc(NCCCCCCCNc2cc(C)nc3cc(N)ccc23)c2ccc(N)cc2n1 [Compound 273829] | – | – | 0.26 Ratio | 105.0%
COc1cc2c(cc1Oc1ccc(OC)c3c1CC1c4c(cc(OC)c(OC)c4-3)CCN1C)CC1c3c(cc(OC)c(OC)c3-2)CCN1C (stereo not shown) [Compound 274893] | – | – | 0.88 Ratio | 16.2%
C[C@@H](N)C(=O)NC(CO)C(O)C(N)C=O.Cl (stereo partly shown) [Compound 278619] | – | – | 1.15 Ratio | 1.1%
CC[C@H](C)C(=O)O[C@H]1CCC=C2C=C[C@H](C)[C@H](CC[C@@H]3C[C@@H](O)CC(=O)O3)[C@H]21 [Compound 281245] | −3.7% | 1.08 Ratio | – | –
C=C1C(=O)OC2C1CC1OC2C(C)CCC/C(C)=C\CCC1(C)O (stereo not shown) [Compound 282752] | −5.5% | 1.00 Ratio | – | –
CCCCCCCCCCCCCCCCCCOP(=O)([O-])OCC[N+](C)(C)C [Compound 282880] | – | – | 0.85 Ratio | 5.8%
CN(CO)c1nc(N(C)CO)nc(N(C)CO)n1 [Compound 283162] | – | – | 1.08 Ratio | −12.0%
O=C1NC(=O)[C@H]2[C@H]3C=C[C@@H]([C@@H]12)[C@@H]1[C@H]2C(=O)NC(=O)[C@H]2[C@H]31 [Compound 284356] | – | – | 1.10 Ratio | 0.0%
Nc1ncnc2c1nc(Cl)n2[C@@H]1O[C@@H]2COP(=O)(O)O[C@H]2[C@H]1O [Compound 284751] | −4.0% | 1.05 Ratio | – | –
C=C(NC(=O)C(=C)NC(=O)c1csc(C2=N[C@@H]3c4csc(n4)C4NC(=O)c5csc(n5)C([C@](C)(O)[C@@H](C)O)NC(=O)[C@H]5CSC(=N5)/C(=C/C)NC(=O)C(C(C)O)NC(=O)c5csc(n5)C3(CC2)NC(=O)[C@H](C)NC(=O)C(=C)NC(=O)C(=C)NC(=O)C(C(C)C)N[C@@H]2C=Cc3c([C@@H](C)O)cc(nc3[C@H]2O)C(=O)OC4C)n1)C(N)=O (stereo partly shown) [Compound 285116] | – | – | 0.90 Ratio | −0.3%
Oc1cccc2cccnc12 [Compound 285166] | – | – | 0.95 Ratio | −2.2%
COc1cc2c(cc1O)N=CC1CCC(O)N1C2=O (stereo not shown) [Compound 285223] | −26.2% | 1.01 Ratio | – | –
NC(=O)c1csc(C2OC(CO)C(O)C2O)n1 (stereo not shown) [Compound 286193] | – | – | 1.13 Ratio | 1.1%
CCN(CC)CCNC(=O)c1nn(-c2ccc(Cl)cc2)c2c1CCc1cc(OC)ccc1-2 [Compound 288010] | – | – | 1.01 Ratio | 28.3%
CC12CCC3C(CCC4CC(OC(=O)Cc5ccc(N(CCCl)CCCl)cc5)CCC43C)C1CCC(=O)N2 (stereo not shown) [Compound 290205] | – | – | 1.03 Ratio | 34.9%
O=C1C2=Nc3ccccc3C(O)N2c2ccccc21 (stereo not shown) [Compound 292147] | – | – | 1.07 Ratio | −2.1%
COC1CC(CC2CCC(C)C(C(C)C(=O)O)O2)OC2(OC(C)(C3CCC(C)(C4OC(C5OC(O)(CO)C(C)CC5C)CC4C)O3)CC2C)C1C (stereo not shown) [Compound 292567] | – | – | 0.85 Ratio | −11.3%
C=C1C(=O)OC2/C=C(/CO)[C@@H](OC(C)=O)C[C@H](O)/C(C)=C\[C@@H](OC(=O)[C@@H](C)CC)[C@@H]12 (stereo partly shown) [Compound 292663] | – | – | 0.95 Ratio | 5.1%
CCN(CC)CCOC(=O)Cc1cccc2c(=O)cc(-c3ccccc3)oc12 [Compound 293015] | – | – | 0.96 Ratio | 6.7%
O=C1Oc2ccccc2C(=O)/C1=C1\C=C(c2ccccc2)SS1 [Compound 293927] | – | – | 1.00 Ratio | −14.7%
CC(C)C1=C(O)C2=C(C(=O)C1=O)C1(C)CCCC(C)(C)C1CC2O (stereo not shown) [Compound 294577] | – | – | 0.95 Ratio | −15.9%
O=C1Nc2ccc(Br)cc2/C1=C\C(=O)c1ccccc1 [Compound 294961] | −28.1% | 1.06 Ratio | – | –
CC1(O)C=CC(=O)C=C1 [Compound 295156] | 9.0% | 0.99 Ratio | – | –
NCCCNCCSP(=O)(O)O [Compound 296961] | – | – | 0.92 Ratio | 17.5%

Compound | Inh. (%) (Inhibition) (MBHA with a DNA substrate) | Int.* (Ratio) (Interference) [1] | Int.* (Ratio) (Interference) [2] | Inh. (%) (Inhibition) (MBHA with DNA substrate)
COc1cc2oc(=O)cc(C)c2cc1[N+](=O)[O-] [Compound 299879] | – | – | 0.94 Ratio | 20.5%
COc1ccc(-c2csc(=[N+]3CCCCC3)s2)cc1.O=S(=O)(O)O [Compound 302358] | – | – | 1.05 Ratio | 1.1%
C=C1C(=O)C2=CC1CCC(=O)C1(C)CCC(OC(C)=O)C(C)(C)C1CC2O (stereo not shown) [Compound 302979] | – | – | 0.89 Ratio | −8.3%
CCC12C[N+]3([O-])CCc4c([nH]c5ccccc45)C(C(=O)OC)(c4cc5c(cc4OC)N(C)C4C(O)(C(=O)OC)C(OC(C)=O)C6(CC)C=CCN7CCC54C76)CC(C3)C1O2 (stereo not shown) [Compound 304421] | – | – | 0.97 Ratio | 25.6%
C=C1C(C)C2C(Cc3ccccc3)NC(=O)C23C(OC(C)=O)/C=C/C(C)(O)CC(C)C/C=C/C3C1O (stereo not shown) [Compound 305222] | – | – | 1.03 Ratio | 12.2%
Nc1nc(N)c2cc(Sc3cccc(C(F)(F)F)c3)ccc2n1 [Compound 305782] | – | – | 0.87 Ratio | 28.4%
CC(C)(C)NCCC(O)c1cc(C(F)(F)F)nc2c(C(F)(F)F)cccc12.O=P(O)(O)O (stereo not shown) [Compound 305819] | – | – | 0.99 Ratio | 28.1%
CC(=O)N(C)c1ccc(Nc2cc(C)[nH]c3ccc4ncnc4c23)cc1.Cl [Compound 305884] | 8.9% | 1.04 Ratio | – | –
C[C@@H]1CC[C@@]2(OC1)O[C@H]1CC3[C@@H]4CC=C5C[C@@H](O[C@@H]6O[C@H](CO)[C@@H](O[C@@H]7O[C@@H](C)[C@H](O[C@@H]8O[C@@H](C)[C@H](O)[C@@H](O)[C@@H]8O)[C@@H](O)[C@H]7O)[C@H](O)[C@H]6O[C@@H]6O[C@@H](C)C(O)[C@@H](O)[C@H]6O)CC[C@]5(C)[C@H]4CC[C@]3(C)[C@H]1[C@@H]2C (stereo partly shown) [Compound 306864] | – | – | 0.86 Ratio | 1.3%
O=NN(CCCl)C(=O)NCc1ccc[n+]([O-])c1 [Compound 307454] | −2.9% | 1.08 Ratio | – | –
CN(C)CCN1C(=O)c2cccc3cc(N)cc(c23)C1=O [Compound 308847] | – | – | 1.05 Ratio | −13.3%
CC(=O)O.Cc1c2cc[n+](CCN3CCCCC3)cc2c(C)c2c1[nH]c1ccc(O)cc12 [Compound 311153] | – | – | 0.29 Ratio | 5.0%
CCP(CC)CC.[Au+].[Cl-] [Compound 313981] | −3.8% | 0.93 Ratio | – | –
COc1cc2c3c(n(C)c(=O)c2cc1OC)-c1cc2c(cc1C3=O)OCO2 [Compound 314622] | – | – | 0.70 Ratio | 23.1%
O=C1c2ccccc2C(=O)c2c(O)c(NCCNCCO)cc(O)c21 [Compound 316157] | – | – | 0.70 Ratio | 36.4%
C/C(=N\NC(=S)N1CCC1)c1ccccn1 [Compound 319726] | – | – | 1.02 Ratio | 3.2%
Nc1ccc2c(c1)CN1C(=O)c3ccccc3C1=N2 [Compound 320846] | 10.7% | 0.90 Ratio | – | –
O=C(N=Nc1c(O)[nH]c2c(Cl)cc(Cl)cc12)c1ccccc1O [Compound 320864] | – | – | 0.80 Ratio | 4.4%
COc1ccc2c(c1[N+](=O)[O-])CC[C@@H]1[C@@H]2CC[C@]2(C)C(=O)CC[C@@H]12 [Compound 321803] | – | – | 1.02 Ratio | −11.7%
C/C(=N\N=C(/[Se])N1CC2CCC(CC2)C1)c1ccccn1 [Compound 323241] | 10.7% | 0.90 Ratio | – | –
CCCCCCCCCCCCCCCCCCOCC(COP(=O)([O-])OCC[N+](C)(C)C)OC (stereo not shown) [Compound 324368] | – | – | 0.85 Ratio | −15.0%
CCCCS(=N)(=O)CCC(N)C(=O)O (stereo not shown) [Compound 326231] | – | – | 0.94 Ratio | 28.0%
Clc1cc2nc[nH]c2cc1Cl [Compound 326397] | – | – | 1.06 Ratio | 1.6%
CN(C)c1ccc(/C=N/N=C2\C(=O)Nc3c(Cl)cc(Cl)cc32)cc1 [Compound 327697] | – | – | 1.22 Ratio | −10.2%
C[C@@H]1CCOC(=O)/C=C/C=C\C(=O)O[C@@H]2C[C@H]3O[C@@H]4[C@@H]5O[C@]5(C)[C@H](O)C[C@]4(COC(=O)[C@H]1O)[C@]2(C)[C@@]31CO1 [Compound 328166] | – | – | 1.04 Ratio | 20.7%
